Measurements reported in patent US7041639B2, “Depsipeptide and congeners thereof for use as immunosuppressants” (XCYTE Therapies, Inc., priority 1999, dated 2006).

What was measured:
[1] = tested on: IL-2 production by activated CD4 cells; test: IL-2 ELISA of supernatants; assay type: cell-based, human; details: ELISA after 24 h of 3×28 bead stimulation of purified CD4 cells; FIG. 6
Experimental: Cells are prepared as described above. Supernatants from cells stimulated 24 h are subjected to an IL-2 or TNF-α enzyme linked immunosorbant assay (ELISA) according to the manufacturer's instructions (Biosource International, Sunnyvale, Calif.).
To study the mechanism behind FR901228 inhibition of CD4 cell proliferation, IL-2 and TNF-α production by activated CD4 cells was analyzed. […] The reason for this difference is currently unknown.

[2] = tested on: CD154 transcript; test: RT-PCR of the CD154 transcript; assay type: cell-based; details: 18 hours of stimulation with 3×28 beads; data not shown
Experimental: In separate experiments, RT-PCR of the CD154 transcript was carried out after 18 hours of stimulation with 3×28 beads and various amounts of FR901228. […] Experiments were also conducted using CD4 cells incubated with anti-sense constructs of c-myc. After stimulation by 3×28 beads for twenty-four hours, the anti-sense c-myc construct reduced CD154 expression as measured by flow cytometry by about 50% as compared to controls including:no construct, sense or transfection with a scrambled c-myc construct (data not shown). Accordingly, FR901228 and like compounds may target the activity of c-myc and its induction of CD154 as one mechanism of immune suppression.

[3] = tested on: CD4 cells; test: Proliferation by MTT assay, purified CD4 cell cultures; assay type: cell-based, human; details: for concentration with no significant effect on proliferation of CD4 cells / lowest concentration that completely inhibits proliferation of CD4 cells: MTT day 3; for lowest concentration that completely inhibits proliferation of CD4 cells: 2 hour incubation prior to stimulation
Experimental: Cells isolated from human blood are grown in X-vivo media (Biowhittaker Inc., Walkersville, Md.) and depending on use supplemented with or without 20 U/ml IL-2 (Boehringer Mannheim, Indianapolis, Ind.) and supplemented with 5% human serum (Biowhittaker), 2 mM Glutamine (Life Technologies, Rockville, Md.) and 20 mM HEPES (Life Technology). Jurkat E6-1 cells (ATCC, Manassas, Va.) are grown in RPMI 1640 (Life Technologies) supplemented with 10% fetal bovine serum (FBS) (Biowhittaker), 2 mM glutamine (Life Technologies), […] (Life Technologies), and […] (Life Technologies).
Buffy coats from healthy human volunteer donors are obtained (American Red Cross, Portland, Oreg.). Peripheral blood mononuclear cells (PBMC) are obtained using Lymphocyte Separation Media (ICN Pharmaceuticals, Costa Mesa, Calif.) according to the manufacturers' instructions.
Peripheral blood lymphocytes (PBL) are obtained from the PBMC fraction by incubation in a culture flask (Costar, Pittsburgh, Pa.) or with uncoated Dynabeads (Dynal, Oslo, Norway), 1×10^8 cells/ml, 2 beads/cell, 2 h at 37° C. Monocytes and macrophages are removed by adherence to the culture flask or phagocytoze the paramagnetic beads that are depleted by magnetic cell separation according to the manufacture's instruction (Dynal). CD4 cells are purified from the PBL fraction by incubation with 10 μg/ml of monoclonal antibodies against CD8 (clone G10-1), CD20 (clone IF5), CD14 (clone F13) and CD16 (Coulter), 10^8 cells/ml, 20 min at 4° C. After washing, cells are depleted twice with sheep anti-mouse Ig-coupled dynabeads (10^6 cells/ml, 6 beads/cell, 20 min at 4° C.) and magnetic cell separation. The purity of CD4 cells are routinely 91–95% as measured by flow cytometry.
Dendritic cells are generated from PBMC adhering to the culture flask (Costar), 10^8 cells/ml, 2 h at 37° C. (without Dynabeads). After extensive washing, adherent cells are cultured for 7 days in media containing 500 U/ml GM-CSF (Boehringer-Mannheim) and 12.5 U/ml IL-4 (Boehringer-Mannheim). The resulting cell population is weakly adherent and expresses surface markers characteristic of dendritic cells (positive for HLA-DR, CD86, CD83, CD11c and negative for CD4). (note:all antibodies obtained from Becton Dickinson, Calif.).
Cells are stimulated by three different methodologies 1) Dynabeads (M-450) covalently coupled to anti-CD3 (OKT-3) and anti-CD28 (9.3) antibodies (3×28 beads) according to the manufacturer's instructions (Dynal), 3 beads/cell, 2) Ionomycin (Calbiochem, La Jolla, Calif.) (100 ng/ml) and phorbol 12-myristate-13-acetate (PMA) (Calbiochem) (10 ng/ml), 3) allogeneic dendritic cells (25,000 dendritic cells/200,000 CD4 cells). All cells are stimulated at a concentration of 1×10^6 cells/ml. Cells are incubated with compounds of structure (I) (e.g., FR901228) (NCI, Bethesda, Md.) for 1 to 2 hours prior to stimulation as outlined above. Proliferation assays are conducted in quadruplicate in 96 well flat-bottom plates. Cells are stimulated at 1×10^6 cells/ml in a final volume of 200 μl. Proliferation is measured by MTT assay (MTT assay kit, Chemicon International Inc., Temecula, Calif.) at day 3 (stimulation method 1 and 2) or at day 6 (stimulation method 3), and results are presented as mean value of quadruplicates. PBL cultures or purified CD4 cell cultures are stimulated with 3×28 beads, ionomycin/PMA or allogenic dendritic cells. […] Further, […] cell survival is not affected by FR901228, as assessed by sub-G1 DNA measurement and integrity of the cell membrane (FIG. 5D). Lack of cytotoxicity of FR901228 is in agreement with results described by Byrd et al, Blood 94(4):1401–1408, 1999; Bates et al., Clinical Pharmacology, Programs and Proceedings of American Society of Clinical Oncology, Abstract 693, 1999; and Chassaing et al., J. Chrmatogr. B 719:169–176, 1998.

[4] = tested on: bulk phosphorylation; test: Phosphotyrosine Western blots; assay type: cell-based
Excerpt: FR901228 has a number of features that aid its ability to act as a potent immunosuppressant. […] Thus, these observations indicate that compounds of structure (I) affect the T-cell activation pathway at multiple points, thus allowing activation to proceed into early stages, such as phosphorylation, but preventing subsequent events of activation and proliferation.

[5] = tested on: CD154 promoter in Jurkat T-cells; test: GFP reporter under control of the CD154 promoter; assay type: cell-based; details: 24 hours 3×28 beads; 0, 10, 50, 100 ng/ml; FIG. 11
Experimental: In this experiment Jurkat T-cells were stabily transfected with a vector construct (p-EGFP1, Clonetech) wherein the nucleotide sequence encoding green fluorescent protein was operably linked to the CD154 promoter cloned from Jurkat cells. Following selection of cells containing the vector of interest, the cells were subjected to stimulation for 24 hours with 3×28 beads in the presence of varying concentrations (0 to 100 ng/ml) of FR901228. Fluorescence was then detected using flow cytometry.

Structure (SMILES): C/C=C1\NC(=O)[C@H]2CSSCC/C=C/[C@H](CC(=O)N[C@H](C(C)C)C(=O)N2)OC(=O)[C@H](C(C)C)NC1=O [FR901228]
- lowest concentration that markedly inhibits IL-2 production [1]: 10 ng/mL
- levels of CD154 expression by RT-PCR [2]: reduced levels of CD154 expression with increasing amounts
- concentration with no significant effect on proliferation of CD4 cells ([3]; 3×28 beads): ≤ 1 ng/mL
- lowest concentration that completely inhibits proliferation of CD4 cells ([3]; 3×28 beads): 10 ng/mL
- T-cell proliferation on addition of IL-2 ([3]; addition of 100 U/ml IL-2): will not restore proliferation
- lowest concentration that significantly inhibits proliferation induced by allogenic dendritic cells ([3]; allogenic dendritic cells, MTT day 6): 1 ng/ml
- concentration with no significant effect on proliferation of CD4 cells ([3]; ionomycin/PMA): ≤ 1 ng/mL
- lowest concentration that completely inhibits proliferation of CD4 cells ([3]; ionomycin/PMA): 10 ng/mL
- inhibition of CD4 positive T-cell proliferation ([3]; stimulation by anti-CD3/anti-CD28 beads, FIG. 3): dose dependent inhibition
- inhibition of CD4 positive T-cell proliferation ([3]; stimulation with in vitro generated allogenic dendritic cells, FIG. 4): dose dependent inhibition
- bulk phosphorylation [4]: does not affect
- induction of GFP expression under CD154 promoter [5]: only cells having 0 ng/ml of FR901228 showed induction of GFP expression
